Earlier results on two compounds are cited in patent US5897876A, “Emulsified drug delivery system” (Shire Laboratories Inc., priority 1997, dated 1999).

This data set deals with peptide transport. To be noted: in other vehicles; "known".

On to `CCCCC/C=C\C/C=C\CCCCCCCC(=O)O` [linoleic acid], for which the promote peptide transport result is on record as “known to promote peptide transport in other vehicles”.
Turning to `CCCCCCCC/C=C\CCCCCCCC(=O)O` [oleic acid], the promote peptide transport result is on record as “known to promote peptide transport in other vehicles”.
